According to PubChem BioAssay (NCI):
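1) Cells in 96-well plates. 2) Compound, 48 h, 5 concentrations. 3) Linear interpolation between surrounding doses. 4) Unreached endpoint = highest concentration. TGI: concentration producing complete growth inhibition.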

Columns and labels:
Assay in all cases: inhibition of tumour cell growth, NCI panel, 48 h
NCI-H522 lung = tested on: NCI-H522 lung
CAKI-1 renal = tested on: CAKI-1 renal
BT-549 breast = tested on: BT-549 breast
U251 CNS = tested on: U251 CNS
HCT-15 colon = tested on: HCT-15 colon
MDA-MB-435 = tested on: MDA-MB-435
SNB-75 CNS = tested on: SNB-75 CNS
SN12C renal = tested on: SN12C renal
MCF7 breast = tested on: MCF7 breast
SK-OV-3 ovarian = tested on: SK-OV-3 ovarian
OVCAR-5 ovarian = tested on: OVCAR-5 ovarian
SR leukemia = tested on: SR leukemia
SW-620 colon = tested on: SW-620 colon
MDA-MB-231 breast = tested on: MDA-MB-231 breast

Row | Compound | TGI (NCI-H522 lung) [µM] | TGI (CAKI-1 renal) [µM] | TGI (BT-549 breast) [µM] | TGI (U251 CNS) [µM] | TGI (HCT-15 colon) [µM] | TGI (MDA-MB-435) [µM] | TGI (SNB-75 CNS) [µM] | TGI (SN12C renal) [µM] | TGI (MCF7 breast) [µM] | TGI (SK-OV-3 ovarian) [µM] | TGI (OVCAR-5 ovarian) [µM] | TGI (SR leukemia) [µM] | TGI (SW-620 colon) [µM] | TGI (MDA-MB-231 breast) [µM]
1 | CCOC(=O)Cc1ccc(Nc2nc3cc(C(F)(F)F)ccc3nc2C(=O)OCC)cc1 | > 100 | > 100 | > 100 | > 100 | > 100 | > 100 | 48.2 | > 100 | > 100 | > 100 | > 100 | > 100 | > 100 | –
2 | O=C(O)C(Cc1ccc(O)cn1)NC(=O)C(F)(F)F (configuration not stated) | > 100 | > 100 | > 100 | > 100 | > 100 | > 100 | – | > 100 | > 100 | – | > 100 | > 100 | > 100 | > 100
3 | CCOC(=O)c1ccc2c(c1)nc1n2C(c2c(F)cccc2F)SC1 (configuration not stated) | – | > 100 | > 100 | > 100 | > 100 | > 100 | > 100 | > 100 | 74.6 | > 100 | > 100 | > 100 | > 100 | > 100
4 | COC(C)(C)C(O)C(O)C[C@H](C)C1CC=C2C1(C)CCC1[C@@]3(C)CCC(OC(C)=O)C(C)(C)C3CC(OC3OC(COC(C)=O)C(O)C(O)C3O)[C@@]21C (some centres not stated) | 8.7 | > 10 | > 10 | > 10 | > 10 | > 10 | > 10 | > 10 | > 10 | > 10 | > 10 | – | > 10 | 9.73
5 | COc1ccc(C)c2c1N[C@](C)([C@]1(C)Nc3c(OC)ccc(C)c3C1=O)C2=O | > 100 | > 100 | > 100 | > 100 | > 100 | > 100 | – | > 100 | > 100 | > 100 | > 100 | > 100 | > 100 | > 100
6 | C#CCCCC(=C)C[C@H](OCc1ccccc1)[C@H]1OC(=O)[C@@H]1C | – | 46.5 | > 100 | > 100 | > 100 | > 100 | > 100 | > 100 | > 100 | > 100 | > 100 | > 100 | > 100 | 63.3
7 | Cc1ccc(S(=O)(=O)Nn2c(-c3ccccc3)c(C#N)c(-c3ccc(Cl)cc3)c(C#N)c2=O)cc1 | – | > 100 | 61.2 | 55.1 | > 100 | > 100 | – | > 100 | > 100 | > 100 | > 100 | – | > 100 | 89.5
8 | COc1ccc(-c2oc3c(CC(=O)O)cccc3c(=O)c2OC)cc1 | > 100 | 42.6 | > 100 | > 100 | – | > 100 | – | > 100 | > 100 | > 100 | > 100 | > 100 | – | > 100
9 | CCCCCCNC(=O)c1cc(NCc2cc(OC)ccc2OC)ccc1O | 33.1 | 98 | 33.4 | 41.1 | 57.3 | 44.8 | 76.3 | 53.7 | 53.5 | 36.9 | > 100 | – | > 100 | 46.7
10 | CC1=C(C)SC(=C2Sc3c(n(C)c(=O)[nH]c3=O)S2)S1 | > 100 | > 100 | > 100 | > 100 | > 100 | > 100 | > 100 | > 100 | > 100 | > 100 | > 100 | – | > 100 | > 100
11 | CO/C(=N/N1CC1C(F)(F)F)c1ccncc1 (configuration not stated) | > 100 | > 100 | > 100 | > 100 | > 100 | > 100 | > 100 | > 100 | > 100 | > 100 | > 100 | > 100 | – | > 100
12 | Cc1cc(Cl)nc(NC(=O)CSc2ccc(Cl)cc2)n1 | > 100 | – | > 100 | > 100 | > 100 | > 100 | – | > 100 | – | – | > 100 | > 100 | > 100 | > 100
13 | CC(=O)OCC1OC(n2c(C)c(N=Nc3ccc(C)cc3)c(C)c(C#N)c2=S)C(OC(C)=O)C(OC(C)=O)C1OC(C)=O (configuration not stated) | – | > 100 | > 100 | > 100 | – | > 100 | > 100 | > 100 | > 100 | > 100 | > 100 | > 100 | > 100 | > 100
14 | COc1cc(CC2CCc3nc(N)nc(N)c3C2)cc(OC)c1OC (configuration not stated) | 17 | – | > 100 | > 100 | > 100 | > 100 | > 48.8 | > 100 | > 100 | > 100 | > 100 | > 100 | > 100 | > 100
15 | CC1CCCOc2ccc(cc2)C=Nc2ccc(cc2)CCc2ccc(cc2)N=Cc2ccc(cc2)OCCC1 (configuration not stated) | > 100 | > 100 | > 100 | > 100 | > 100 | > 100 | > 100 | > 100 | > 100 | – | > 100 | > 100 | > 100 | > 100
16 | CN(C)c1ccc(N=Nc2cccc3ccoc23)cc1 | > 100 | > 100 | > 100 | > 100 | > 100 | > 100 | > 100 | > 100 | – | > 100 | > 100 | > 76.1 | > 100 | > 100
17 | NC(=O)/N=C(\N)NC(=O)c1ccccc1 | > 100 | > 100 | > 100 | > 100 | > 100 | > 100 | – | > 100 | – | – | > 100 | > 100 | > 100 | > 100
18 | COc1ccc(C2Oc3c(cccc3OC)C=C2[N+](=O)[O-])cc1OC (configuration not stated) | 12.8 | 38.3 | 31 | 15.2 | 24 | 8.3 | > 100 | – | > 100 | 17.9 | 51.4 | > 100 | – | > 100
